Where “and” joins values, the source holds several entries; their conditions need not be identical. Equal values may be shown once.

Data set [1] deals with T1, bovine insulin (Bos taurus, UniProt P01317).
T1 construct: m/z 325.2 corresponds to Phe-SF, the N-terminal amino acid of insulin B chain; m/z 235.0 corresponds to Gly-SF, the N-terminal amino acid of insulin A chain; purchased Sigma-Aldrich
Nature of the data set: Incubation of peptides with isothiocyanates, LC-MS/MS: insulin. Type of data set: binding. The following applies: for conjugate of insulin peptide and ITC: PBS pH 7.4, 37° C., 0.5 to 24 hours.
Protocol: (§1) Incubations of SF or IB with bovine insulin (P01308, Sigma-Aldrich), recombinant human epidermal growth factor (EGF, P01133, R&D Systems, http://www.rndsystems.com/) and recombinant human transforming growth factor beta 1 (TGFβ1, P01137, R&D Systems) were performed in sodium phosphate-buffered saline solution (pH 7.4) or human blood plasma at 37° C. for 0.5-24 h. Plasma was pre-treated by ultrafiltration to remove high molecular weight proteins (Microcon Ultracel YM-30 filter, MWCO 30,000). Samples were either analyzed directly by LC-MS/MS or by LC-MS/MS analysis of tryptic digests of gel electrophoresis bands.
(§2) The LC system used was a Shimadzu series 10AD VP (Shimadzu, http://www.shimadzu.com/). The column was an ACE 300 C18, 150×2.1 mm (5 μm particle size) used at 40° C. Mobile phase A was 0.1% formic acid in water, mobile phase B, 0.1% formic acid in acetonitrile and the flow rate was 0.25 ml/min. A linear gradient was used from 25% B to 35% B over 0 to 5 min, then a further gradient from 35% B to 99% B over 6 min followed by 99% B for 4 min. The column was re-equilibrated for a total of 3 min. The injection volume was between 5-20 μl. All MS experiments were conducted on a 4000 QTRAP hybrid triple-quadrupole linear ion trap mass spectrometer using Analyst version 1.4.1 software (Applied Biosystems, http://www.appliedbiosystems.com/) equipped with a TurboIon source used in positive ion electrospray mode. The probe capillary voltage was optimized at 4200 V, desolvation temperature set to 400° C., curtain gas, nebulizing and turbo spray gas were set to 40, 10 and 20, respectively (arbitrary values). […] The peak-width was set on Q1 and Q3 at 1.0 Th (measured at half height) for all MS and MS/MS experiments. Spectra were obtained over the range m/z 800-2000 with scan times of 1-2 sec. […]

The target in data set [2] is T2, recombinant human transforming growth factor beta 1 (TGFβ1) (Homo sapiens, UniProt P01137).
T2 construct: TGFβ1 was robustly identified in bands of 25 kDa corresponding to the active dimer; purchased R&D Systems
T2 sequence (P01137 279-390 limits assumed): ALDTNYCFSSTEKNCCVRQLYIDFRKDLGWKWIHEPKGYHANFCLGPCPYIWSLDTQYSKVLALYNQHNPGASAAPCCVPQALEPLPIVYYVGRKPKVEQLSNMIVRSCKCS
Nature of the data set: Incubation of peptides with isothiocyanates, LC-MS/MS: TGFβ1. Format: binding. The following applies: for conjugate of TGFβ1 peptide and ITC: PBS pH 7.4, 37° C., 0.5 to 24 hours.
Protocol: as §1
1 μg aliquots of the TGFβ1 protein, supplied with bovine serum albumin as carrier, were incubated with either DMSO or 1.2 μmoles of SF for 30 minutes at 37° C. and run onto denaturing 4-12% Bis-Tris NuPAGE gels (Invitrogen, http://www.invitrogen.com). Bands were excised and digested with trypsin (Promega, http://www.promega.com/) after reduction with dithiothreitol (DTT) and alklyation with iodoacetamide (Sigma-Aldrich, http://www.sigmaaldrich.com/). Extracted peptides were lyophilized and re-dissolved in 1% acetonitrile, 0.1% formic acid for analysis by mass spectrometry. LC-MS/MS analysis was performed using a LTQ mass spectrometer (Thermo Electron Corporation, http://www.thermo.com/) and a nanoflow-HPLC system (Surveyor, Thermo Electron). Peptides were applied to a precolumn (C18 pepmap100, LC Packings, http://www.lcpackings.com/) connected to a self-packed C18 8-cm analytical column (BioBasic resin ThermoElectron; Picotip 75 μm id, 15 μm tip, New Objective, http://www.newobjective.com/). Peptides were eluted by a gradient of 2 to 30% acetonitrile in 0.1% formic acid over 40 min at a flow rate of approximately 250 nL min^−1. Data-dependent acquisition of MS/MS consisted of selection of the five most abundant ions in each cycle: MS mass-to-charge ratio (m/z) 300 to 2000, minimum signal 1000, collision energy 25, 5 repeat hits, 300 sec exclusion.

For data set [3], the target named is T3, recombinant human epidermal growth factor (EGF) (Homo sapiens, UniProt P01133).
T3 construct: addition of SF to the N-terminal asparagines residue (m/z 309) of EGF; purchased R&D Systems
T3 sequence (P01133 971-1023 limits assumed): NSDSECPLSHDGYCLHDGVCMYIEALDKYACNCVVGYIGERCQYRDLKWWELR
In words: Incubation of peptides with isothiocyanates, LC-MS/MS: EGF. Type of data set: binding. The following applies: for conjugate of EGF peptide and ITC: PBS pH 7.4, 37° C., 0.5 to 24 hours.
Protocol: as §1, §2

For data set [4] the following is noted: following broccoli consumption, cited from earlier work.
Data set [5] has as its system Smad2 phosphorylation in PC3 cells. Nature of the data set: Quantification of pSmad2 protein in PC3 cells. Format: cell-based. As to conditions: for PSmad2 / PSmad2 Normalised to GAPDH: PC3 cells. The protocol:
FIG. 14 represents (a) a photograph of a gel; and (b) the data quantified in a bar chart which corresponds to the data presented in Table 6 as discussed in Example 2 (Expt 2). The data illustrates how an ITC modulates Smad activity. The experiment concerned pre-incubation of TGFβ1 with and without sulforaphane (SF) for 30 minutes before treating PC3 cells for 1 h and then measuring Smad2 phosphorylation (i.e. a function of TGFβ1 activity).
TGFβ1 acts an anti-inflammatory cytokine. It induces phosphorylation of smad proteins that translocate to the nucleus and induce gene expression associated with anti-inflammatory activity. […] Therefore ITCs act as anti-inflammatory mediators.

Data set [6] has as its system EGF receptor phosphorylation in BPH1 cells (hyperplastic prostate cells). The following applies: BPH cells.
The test system of data set [7] is TGFβ1/Smad mediated transcription. In words: Luciferase reporter gene assay in NIH 3T3 cells with CAGA12-luc plasmid. Type of data set: cell-based. The protocol: NIH 3T3 cells stably transfected with a CAGA12-luc plasmid, which responds to Smad activation (Dennler et al. (1998) Embo J 17: 3091-3100), were cultured in DMEM supplemented with 10% fetal calf serum (FCS), 1% penicillin, 1% streptomycin, 1% L-glutamine and 0.4 mg/ml geneticin. Cells were seeded into complete growth medium in a six-well tissue culture dish for 24 h, after which the medium was replaced with low serum medium (0.5% FCS) containing one of three treatments:
(1) TGFβ1 (to achieve a final concentration of 2 ng ml^−1) in PBS buffer,
(2) (TGFβ1+10 mM DTT in PBS buffer
(3) TGFβ1+2 μM SF in PBS buffer.
To simulate SF pharmacokinetics, all test samples were incubated at 37° C. for 30 minutes prior to dialysis, performed in PBS buffer for 4 hours using Slide-A-Lyzer Dialysis Cassettes MWCO 3.5K (PIERCE, http://www.piercenet.com/). Dialysis reduced SF concentration to 34 nM. As additional controls, cells were treated with PBS without TGFβ1 and PBS with SF (34 nM). The luciferase activity was determined 16 h following treatment using the Luciferase Reporter Gene assay (Roche Applied Science, http://www.roche.com/) in a Perkin Elmer Wallac Victor 2 1420 multilabel counter plate reader (http://las.perkinelmer.com/). Briefly, cells were washed twice with PBS and lysed in cell lysis buffer supplied with the assay. Chemiluminescence was immediately quantified following the addition of luciferase assay substrate. Luciferase values were normalized to protein concentration quantified using the BCA assay (Sigma-Aldrich, http://www.sigmaaldrich.com/). The experiment was repeated four times, with three replicates of each treatment per experiment. Statistical analysis was performed using 1-way ANOVA with the statistical software, R (http://www.R-project.org).
(A reporter such as luciferase makes a cellular process visible.)

The test system of data set [8] is Smad2 phosphorylation in A549 cells. In words: Quantification of pSmad2 protein in A549 cells. Format: cell-based. The following applies: TGFβ1 alone.
Where [9] appears, read: TGFβ1 + 2 μM SF, pre-incubated 30 minutes, cells treated 1 h.
[10] abbreviates: TGFβ1 + 10 μM SF, pre-incubated 30 minutes, cells treated 1 h.

T1 sequence (P01317 25-54 limits assumed): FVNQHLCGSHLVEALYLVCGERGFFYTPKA
T1 sequence (P01317 85-105 limits assumed): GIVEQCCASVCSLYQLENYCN

Turning to `C[S+]([O-])CCCN=C=S` (stereo not shown) [IB, iberin], the “conjugate of insulin peptide and ITC” value in data set [1] was “formation of a covalently bound conjugate”. Also, the “conjugate of TGFβ1 peptide and ITC” value in data set [2] was “formation of a covalently bound conjugate”. For the same molecule, the “conjugate of EGF peptide and ITC” value in data set [3] is on record as “formation of a covalently bound conjugate”.
Consider `C[S+]([O-])CCCCN=C=S` (stereo not shown) [SF, sulforaphane], for which the “SF in the plasma that occurs as free SF, as opposed to thiol conjugates” value in data set [4] was 45%. For the same molecule, the “peak concentration of SF and its thiol conjugates” value in data set [4] (plasma) is recorded as “less than 2 μM”. In data set [5] (PC3 cell line, co-exposure to TGFβ1 and SF), the “expression of pSmad2 compared to TGFβ1 alone” value is listed as “enhances expression of psamd2”. Further, in data set [5] (setting [9]), the PSmad2 is 8179 counts/mm^2 and 12578 counts/mm^2 and 11881 counts/mm^2; the “PSmad2 Normalised to GAPDH” value was 0.1772 and 0.2807 and 0.3091. For the same molecule, in data set [5] (setting [10]), the PSmad2 is 13595 counts/mm^2 and 16870 counts/mm^2 and 15049 counts/mm^2; the “PSmad2 Normalised to GAPDH” value was 0.2602 and 0.2810 and 0.3104. Also, in data set [6] (10 μmol/L sulforaphane, 10 mg/L EGF, 10 minute timecourse), the “reduction in EGF receptor phosphorylation” value is “approximately threefold”. In addition, in data set [6] (pre-incubation of EGF with ITC), the “amount of phosphorylated EGF receptor compared to EGF alone” value is given as “reduces the amount of phosphorylated receptor”. Also, in data set [7] (TGFβ1 pre-incubated with 2 μM SF for 30 minutes followed by dialysis (SF 34 nM)), the “Smad-mediated transcription (luciferase) compared to TGFβ1 alone” value is “increase in Smad-mediated transcription”. Besides, the “Smad-mediated transcription (luciferase)” value in data set [7] (residual SF (34 nM) alone, without TGFβ1) is reported as “did not result in enhanced transcription”. In addition, the “conjugate of insulin peptide and ITC” value in data set [1] was “formation of a covalently bound conjugate”. For the same molecule, the “insulin-ITC conjugates (N-terminal Gly and Phe) by LC-MS/MS” value in data set [1] (human plasma depleted of high MW proteins) is “appearance of two insulin-SF conjugates”. For the same molecule, the “modification of TGFβ1 (tryptic N-terminal peptide, LC-MS/MS)” value in data set [2] (1 μg TGFβ1 with 1.2 μmoles of SF, 30 minutes at 37° C., SDS-PAGE, trypsin) is listed as “N-terminal modification”. Also, the “conjugate of TGFβ1 peptide and ITC” value in data set [2] was “formation of a covalently bound conjugate”. Besides, the “conjugate of EGF peptide and ITC” value in data set [3] is on record as “formation of a covalently bound conjugate”. Besides, the “EGF conjugates (N-terminal asparagine) by LC-MS/MS” value in data set [3] (human plasma) was “formation of EGF conjugates with SF”.
With “TGFβ1: recombinant human transforming growth factor beta 1 (P01137, R&D Systems)”, in data set [5] (TGFβ1 alone, 1 h), the PSmad2 was 6154 counts/mm^2 and 10910 counts/mm^2 and 7089 counts/mm^2; the “PSmad2 Normalised to GAPDH” value was 0.1039 and 0.1722 and 0.1398. For the same molecule, the luciferase activity entry in data set [7] (TGFβ1 alone, 2 ng ml^−1) is on record as “induced luciferase activity”. In addition, in data set [8], the PSmad2 is listed as 1570 counts/mm^2 and the “PSmad2 Normalised to GAPDH” value came to 0.1320.

The values are drawn from patent US20110245213A1, “TREATMENT” (PROVEXIS NATURAL PRODUCTS LIMITED, priority 2008, published 2011).
